Laboratory results: patent publication US6784153B1, “Methods of homing molecules to lung using membrane dipeptidase” (The Burnham Institute, priority 1998, dated 2004)
“Also recorded” adds a separate entry of the source.

Experiments:
lung = test: in vivo homing of phage displaying peptides to lung; design: species or system mice; settings: for homing of lung homing phage to control kidney or brain: control organs
Procedure: For lung and pancreas, a mixture of phage libraries containing 10^10 TU was diluted in 200 μl DMEM and injected into the tail vein of anesthetized BALB/c mice (2 month old; Harlan Sprague Dawley; San Diego Calif.); AVERTIN (0.017 ml/g) was used as anesthetic (Pasqualini and Ruoslahti, supra, 1996). After 1-4 minutes, mice were snap frozen in liquid nitrogen or, after about 5 minutes of phage circulation, the mice were perfused through the heart with 5-10 ml of DMEM (SIGMA; St. Louis Mo.). To recover the phage, the organs from the perfused mice or partially thawed organs from snap frozen mice were collected and weighed, then were homogenized in 1 ml DMEM-PI (DMEM containing protease inhibitors (PI); phenylmethyl sulfonyl fluoride (PMSF; 1 mM), aprotinin (20 μg/ml), leupeptin (1 μg/ml)).
Organ samples were washed 3 times with ice cold DMEM-PI containing 1% bovine serum albumin (BSA), then directly incubated with 1 ml K91-kan bacteria for 1 hr. Ten ml NZY medium containing 0.2 μg/ml tetracycline (NZY/tet) was added to the bacterial culture, the mixture was incubated in a 37° C. shaker for 1 hr, then 200 μl aliquots were plated in agar plates containing 40 μg/ml tetracycline (tet/agar).
Approximately 250 to 300 individual bacterial colonies containing phage recovered from the various organs or tissues were grown for 16 hr in 5 ml NZY/tet. In some experiments, approximately 1000 individual bacteria containing phage were picked and the phage were amplified in 2 ml of NZY/tet or the entire plate containing phage was scraped, pooled and grown in bulk and processed for injection. Where phage were cultured separately, the cultures were pooled and the phage were injected into mice or rats as described above for a second round of in vivo panning. In some experiments, a third or fourth round of panning was performed. Phage DNA was purified from individual bacterial colonies obtained and the DNA sequences encoding the peptides expressed by selected phage were determined (see Koivunen et al., supra, 1994b).
After two or three rounds of in vivo panning of mice injected with a cyclic CX3CX3CX3C (SEQ ID NO: 25) or a cyclic CX6C (SEQ ID NO: 26) phage display library, four peptides that homed to lung were identified.
To determine the specificity of lung homing of the individual peptides identified, phage displaying the peptides were amplified individually, diluted to the same input titer and administered to mice. Following administration, control kidney and brain organ was removed and the number of TU of phage in lung, kidney and brain was determined. The results shown in FIG. 2 reveal that 10× and 35× more phage having the peptide sequence CGFECVRQCPERC (SEQ ID NO: 1; GFE-1) bound to lung than to kidney and brain, respectively. […] The lung homing peptides CGFECVRQCPERC (SEQ ID NO: 1; GFE-1), CGFELETC (SEQ ID NO: 2; GFE-2), CTLRDRNC (SEQ ID NO: 15) and CIGEVEVC (SEQ ID NO: 16) are enriched in lung at 35×, 9×, 6× and 5×, respectively, over unselected phage (see FIG. 2).

lung primary cells = test: phage binding assay on lung primary cells; design: species or system mice
Procedure: Phage binding to primary cells was performed as follows. Briefly, Balb/c mice (Harlan Sprague Dawley) were anesthetized with 0.017 ml/g of Avertin as described in Gardner et al., Lab. […] Under deep anesthesia, mice were perfused through the heart with 10 ml Dulbecco's modified Eagle's medium (DMEM; Irvine Scientific; Santa Ana, Calif.). The lungs, kidneys and brain were then collected, minced, placed in 2 ml of DMEM containing 0.5% BSA (Intergen; Purchase, N.Y.) and 0.5 μg/ml collagenase V (SIGMA) and incubated at 37° C. for 25 minutes. Following collagenase treatment, the tissue was forced through a […] pore cell strainer (Becton Dickinson; Franklin Lake, N.J.). The filtered cells were washed once with 10 ml DMEM supplemented with 10% serum.
For the binding reaction, 10^9 transducing units (TU) of phage were incubated with 5×10^6 cells in 1 ml DMEM supplemented with 10% serum. The binding was performed at 4° C. for 2 hours with gentle agitation. After the binding reaction, the cells were washed four times with 1 ml of DMEM supplemented with 10% serum at room temperature for 5 to 10 minutes each time. The cells were centrifuged, and the cell pellet resuspended in 100 μl of DMEM and transferred to a new tube. […] The bacteria were then diluted in 10 ml of LB culture media supplemented with 0.2 μg/ml tetracycline, and incubated for another 30 minutes at room temperature. Serial dilutions of the bacterial culture were plated on LB plates containing 40 μg/ml tetracycline. Plates were incubated at 37° C. overnight before the colonies were counted (transducing units, TU).

primary brain cells = test: phage binding assay on primary brain cells; design: species or system mice; settings: in vitro
Procedure: Phage binding to primary cells was performed as follows. Briefly, Balb/c mice (Harlan Sprague Dawley) were anesthetized with 0.017 ml/g of Avertin as described in Gardner et al., Lab. Animal Sci. 45:199-204 (1995), which is incorporated herein by reference. Under deep anesthesia, mice were perfused through the heart with 10 ml Dulbecco's modified Eagle's medium (DMEM; Irvine Scientific; Santa Ana, Calif.). The lungs, kidneys and brain were then collected, minced, placed in 2 ml of DMEM containing 0.5% BSA (Intergen; Purchase, N.Y.) and 0.5 μg/ml collagenase V (SIGMA) and incubated at 37° C. for 25 minutes. Following collagenase treatment, the tissue was forced through a […] pore cell strainer (Becton Dickinson; Franklin Lake, N.J.). The filtered cells were washed once with 10 ml DMEM supplemented with 10% serum. […] To ensure an equal input of the different phage to be tested, phage were titered several times using K91Kan bacteria (Smith and Scott, supra, 1993).
For the binding reaction, 10^9 transducing units (TU) of phage were incubated with 5×10^6 cells in 1 ml DMEM supplemented with 10% serum. The binding was performed at 4° C. for 2 hours with gentle agitation. […] Plates were incubated at 37° C. overnight before the colonies were counted (transducing units, TU).

[1] = test system: C8161 human melanoma cells; settings: cells and peptide mixture cultured overnight; data not shown
[2] = individually amplified phage, FIG. 2

CGFECVRQCPERC was tested, and the “% OF MOTIF AMONG ALL CLONES” value (lung; LUNG) was 40%, the “LUNG/BRAIN RATIO” value (lung; LUNG section) was 60 and the “homing of lung homing phage to control kidney or brain” value (lung) was “few phage detected in kidney or brain; also recorded: no selective homing to kidney or brain was detected”. For the same sequence, the “homing of lung homing phage to control kidney or brain” value (lung; listed as GFE-1) was “no specific phage homing to kidney was detected”, the “enriched in lung over unselected phage” value (lung; [2]) was 35 × and the “phage bound to lung than to brain” value (lung; [2]) was 35 ×. The “phage bound to lung than to kidney” value (lung; [2]) was 10 ×, the “inhibition of GFE-1 phage binding to lung cells” value (lung primary cells; 150 μM peptide) was ~70% and the “phage bound by primary lung cells relative to insertless fd-tet phage” value (lung primary cells; 10^9 TU phage, 5×10^6 cells, 4° C., 2 hours) was “about 60 fold”. For the same sequence, the “phage binding to primary brain cells” value (primary brain cells) was “no specific binding” and the “toxicity to the melanoma cells” value [1] was “Neither the GFE-1 (SEQ ID NO: 1) or CARAC (SEQ ID NO: 443) peptides exhibited toxicity”.
